According to the supplement of paper PMC6045584:
± gives the standard deviation of the averaged measurements.

Experiments:
MDV3100 [1] = compound: T1, CNC(=O)c1ccc(N2C(=S)N(c3ccc(C#N)c(C(F)(F)F)c3)C(=O)C2(C)C)cc1F [MDV3100]; test: surviving fraction relative to DMSO-only wells; higher = less growth inhibition; settings: exposure time: 5 days
Outline: (§1)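 After seeding at 250–500 cells per well in 384-well plates and a 24-hour wait, log-phase tumour cell lines were exposed without interruption for five days to inhibitors at 0.5, 1, 5, 10, 50, 100, 500 and 1000 nM. CellTiter-Glo luminescence was recorded after 10 minutes at room temperature. Viability is reported as surviving fraction, the luminescence normalised to the median of DMSO-only wells.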

BI-2536 [2] = compound: T2, CC[C@@H]1C(=O)N(C)c2cnc(Nc3ccc(C(=O)NC4CCN(C)CC4)cc3OC)nc2N1C1CCCC1 [BI-2536]; test: as above; settings: exposure time: 5 days
Outline: as §1

[3] = compound: Cn1cc(C2=Nc3cc(NC(=O)C(N)C4CCCCC4)cc4c3C2=CNNC4=O)cn1; test: as above; settings: exposure time: 5 days
Outline: as §1

AFATINIB [4] = compound: T3, CN(C)C/C=C/C(=O)Nc1cc2c(Nc3ccc(F)c(Cl)c3)ncnc2cc1O[C@H]1CCOC1 [AFATINIB]; test: as above; settings: exposure time: 5 days
Outline: as §1

SNX-5422 [5] = compound: T4, CC1(C)CC(=O)c2c(C(F)(F)F)nn(-c3ccc(C(N)=O)c(N[C@H]4CC[C@H](OC(=O)CN)CC4)c3)c2C1 [SNX-5422]; test: as above; settings: exposure time: 5 days
Outline: as §1

TIOGUANINE [6] = compound: T5, Nc1nc2[nH]cnc2c(=S)[nH]1 [TIOGUANINE]; test: as above; settings: exposure time: 5 days
Outline: as §1

SAPACITABINE [7] = compound: T6, CCCCCCCCCCCCCCCC(=O)Nc1ccn([C@@H]2O[C@H](CO)[C@@H](O)[C@@H]2C#N)c(=O)n1 [SAPACITABINE]; test: as above; settings: exposure time: 5 days
Outline: as §1

CANERTINIB [8] = compound: T7, C=CC(=O)Nc1cc2c(Nc3ccc(F)c(Cl)c3)ncnc2cc1OCCCN1CCOCC1 [CANERTINIB]; test: as above; settings: exposure time: 5 days
Outline: as §1

MDV3100 [9] = compound: T1, MDV3100; test: area under dose-response curve of surviving fraction (unscaled, Aref=0) (surviving fraction x log10(nM)); higher = more resistant; settings: exposure time: 5 days; dose range 0.5-1000 nM
Outline: (§2)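 Each tumour cell line was screened three times in 384-well plates, receiving eight inhibitor concentrations from 0.5 to 1000 nM for five days. CellTiter-Glo luminescence gave viability, normalised to DMSO-only wells. Using the drc R package, surviving fractions were fitted with 3-parameter logistic dose-response curves, and the unscaled activity area over log10 dose (Aref = 0) was taken as the area under the curve.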

BI-2536 [10] = compound: T2, BI-2536; test: as above; settings: exposure time: 5 days; dose range 0.5-1000 nM
Outline: as §2

[11] = compound: Cn1cc(C2=Nc3cc(NC(=O)C(N)C4CCCCC4)cc4c3C2=CNNC4=O)cn1; test: as above; settings: exposure time: 5 days; dose range 0.5-1000 nM
Outline: as §2

AFATINIB [12] = compound: T3, AFATINIB; test: as above; settings: exposure time: 5 days; dose range 0.5-1000 nM
Outline: as §2

SNX-5422 [13] = compound: T4, SNX-5422; test: as above; settings: exposure time: 5 days; dose range 0.5-1000 nM
Outline: as §2

TIOGUANINE [14] = compound: T5, TIOGUANINE; test: as above; settings: exposure time: 5 days; dose range 0.5-1000 nM
Outline: as §2

SAPACITABINE [15] = compound: T6, SAPACITABINE; test: as above; settings: exposure time: 5 days; dose range 0.5-1000 nM
Outline: as §2

CANERTINIB [16] = compound: T7, CANERTINIB; test: as above; settings: exposure time: 5 days; dose range 0.5-1000 nM
Outline: as §2

Test System: HCC1806 BREAST
- surviving fraction (MDV3100 [1]; 0.5 nM): 1.01 ± 0.032
- surviving fraction (MDV3100 [1]; 1 nM): 1.07 ± 0.067
- surviving fraction (MDV3100 [1]; 5 nM): 1.13 ± 0.045
- surviving fraction (MDV3100 [1]; 10 nM): 0.993 ± 0.074
- surviving fraction (MDV3100 [1]; 50 nM): 1.14 ± 0.045
- surviving fraction (MDV3100 [1]; 100 nM): 1.12 ± 0.049
- surviving fraction (MDV3100 [1]; 500 nM): 1.04 ± 0.051
- surviving fraction (MDV3100 [1]; 1000 nM): 1.03 ± 0.06
- surviving fraction (BI-2536 [2]; 0.5 nM): 0.932 ± 0.046
- surviving fraction (BI-2536 [2]; 1 nM): 0.749 ± 0.07
- surviving fraction (BI-2536 [2]; 5 nM): 0.05 ± 0.0082
- surviving fraction (BI-2536 [2]; 10 nM): 0.0447 ± 0.026
- surviving fraction (BI-2536 [2]; 50 nM): 0.126 ± 0.025
- surviving fraction (BI-2536 [2]; 100 nM): 0.136 ± 0.0081
- surviving fraction (BI-2536 [2]; 500 nM): 0.106 ± 0.0027
- surviving fraction (BI-2536 [2]; 1000 nM): 0.0743 ± 0.015
- surviving fraction ([3]; 0.5 nM): 1.08 ± 0.062
- surviving fraction ([3]; 1 nM): 1.16 ± 0.14
- surviving fraction ([3]; 5 nM): 1.09 ± 0.071
- surviving fraction ([3]; 10 nM): 1.05 ± 0.092
- surviving fraction ([3]; 50 nM): 0.528 ± 0.15
- surviving fraction ([3]; 100 nM): 0.145 ± 0.041
- surviving fraction ([3]; 500 nM): 0.0373 ± 0.0042
- surviving fraction ([3]; 1000 nM): 0.0433 ± 0.0025
- surviving fraction (AFATINIB [4]; 0.5 nM): 1.1 ± 0.084
- surviving fraction (AFATINIB [4]; 1 nM): 1 ± 0.038
- surviving fraction (AFATINIB [4]; 5 nM): 0.893 ± 0.071
- surviving fraction (AFATINIB [4]; 10 nM): 0.726 ± 0.075
- surviving fraction (AFATINIB [4]; 50 nM): 0.57 ± 0.045
- surviving fraction (AFATINIB [4]; 100 nM): 0.586 ± 0.028
- surviving fraction (AFATINIB [4]; 500 nM): 0.401 ± 0.036
- surviving fraction (AFATINIB [4]; 1000 nM): 0.343 ± 0.03
- surviving fraction (SNX-5422 [5]; 0.5 nM): 1.15 ± 0.15
- surviving fraction (SNX-5422 [5]; 1 nM): 1.04 ± 0.064
- surviving fraction (SNX-5422 [5]; 5 nM): 1.12 ± 0.012
- surviving fraction (SNX-5422 [5]; 10 nM): 1.07 ± 0.07
- surviving fraction (SNX-5422 [5]; 50 nM): 0.05 ± 0.0085
- surviving fraction (SNX-5422 [5]; 100 nM): 0.03 ± 0.001
- surviving fraction (SNX-5422 [5]; 500 nM): 0.029
- surviving fraction (SNX-5422 [5]; 1000 nM): 0.035 ± 0.001
- surviving fraction (TIOGUANINE [6]; 0.5 nM): 0.989 ± 0.061
- surviving fraction (TIOGUANINE [6]; 1 nM): 1.1 ± 0.059
- surviving fraction (TIOGUANINE [6]; 5 nM): 1.08 ± 0.11
- surviving fraction (TIOGUANINE [6]; 10 nM): 1.08 ± 0.12
- surviving fraction (TIOGUANINE [6]; 50 nM): 1.13 ± 0.15
- surviving fraction (TIOGUANINE [6]; 100 nM): 1.13 ± 0.19
- surviving fraction (TIOGUANINE [6]; 500 nM): 1.03 ± 0.12
- surviving fraction (TIOGUANINE [6]; 1000 nM): 0.952 ± 0.061
- surviving fraction (SAPACITABINE [7]; 0.5 nM): 0.698 ± 0.06
- surviving fraction (SAPACITABINE [7]; 1 nM): 0.673 ± 0.062
- surviving fraction (SAPACITABINE [7]; 5 nM): 0.652 ± 0.048
- surviving fraction (SAPACITABINE [7]; 10 nM): 0.462 ± 0.067
- surviving fraction (SAPACITABINE [7]; 50 nM): 0.259 ± 0.028
- surviving fraction (SAPACITABINE [7]; 100 nM): 0.167 ± 0.0089
- surviving fraction (SAPACITABINE [7]; 500 nM): 0.0637 ± 0.0081
- surviving fraction (SAPACITABINE [7]; 1000 nM): 0.061 ± 0.007
- surviving fraction (CANERTINIB [8]; 0.5 nM): 0.803 ± 0.11
- surviving fraction (CANERTINIB [8]; 1 nM): 0.688 ± 0.12
- surviving fraction (CANERTINIB [8]; 5 nM): 0.738 ± 0.081
- surviving fraction (CANERTINIB [8]; 10 nM): 0.706 ± 0.022
- surviving fraction (CANERTINIB [8]; 50 nM): 0.738 ± 0.12
- surviving fraction (CANERTINIB [8]; 100 nM): 0.639 ± 0.027
- surviving fraction (CANERTINIB [8]; 500 nM): 0.442 ± 0.043
- surviving fraction (CANERTINIB [8]; 1000 nM): 0.328 ± 0.037
- area under dose-response curve (MDV3100 [9]): 3.52
- area under dose-response curve (BI-2536 [10]): 0.671
- area under dose-response curve [11]: 2.07
- area under dose-response curve (AFATINIB [12]): 2.28
- area under dose-response curve (SNX-5422 [13]): 1.85
- area under dose-response curve (TIOGUANINE [14]): 3.5
- area under dose-response curve (SAPACITABINE [15]): 1.25
- area under dose-response curve (CANERTINIB [16]): 2.12
